According to ChEMBL document CHEMBL1131782, “Synthesis, biological activity, and absolute stereochemical assignment of NPS 1392: a potent and stereoselective NMDA receptor antagonist” (Bioorg Med Chem Lett, 1999):

Key:
Glutamate NMDA receptor [1] = assay: Potency towards NMDA receptor measured as inhibition of (+)-[3-3H]MK-801 binding from synaptic plasma membrane obtained from rat cortex
Glutamate NMDA receptor [2] = assay: Functional NMDA receptor antagonism expressed as inhibition of NMDA/glycine induced increase in cytosolic calcium in cultured rat cerebellar granule cells

**Q.** For C[C@@H](CN)C(c1cccc(F)c1)c1cccc(F)c1, which IC50 (Glutamate NMDA receptor [1]) is on record?
**A.** The IC50 was 0.141 µM.

**Q.** What about the IC50 (Glutamate NMDA receptor [2]) of the same compound?
**A.** The IC50 was 0.075 µM.

**Q.** Which results are given for NCCC(c1cccc(F)c1)c1cccc(F)c1?
**A.** IC50 (Glutamate NMDA receptor [1]): 0.23 µM; IC50 (Glutamate NMDA receptor [2]): 0.063 µM

**Q.** With C[C@H](CN)C(c1cccc(F)c1)c1cccc(F)c1 as the compound, how does the IC50 (Glutamate NMDA receptor [1]) read?
**A.** The IC50 was 2 µM.

**Q.** And the IC50 (Glutamate NMDA receptor [2])?
**A.** The IC50 was 0.384 µM.
